The results in this text go back to paper PMC12668310, “High‐Throughput Synthesis and Screening of a Cyanimide Library Identifies Selective Inhibitors of ISG15‐Specific Protease mUSP18” (Angewandte Chemie (International Ed. in English), 2025).

Where two headings read alike, the source gives them in different places.

This assay deals with T1, mUSP18 (Mus musculus, UniProt Q9WTV6).
T1 construct: (46-368); His-tag (N); made in house
T1 sequence (Q9WTV6 46-368): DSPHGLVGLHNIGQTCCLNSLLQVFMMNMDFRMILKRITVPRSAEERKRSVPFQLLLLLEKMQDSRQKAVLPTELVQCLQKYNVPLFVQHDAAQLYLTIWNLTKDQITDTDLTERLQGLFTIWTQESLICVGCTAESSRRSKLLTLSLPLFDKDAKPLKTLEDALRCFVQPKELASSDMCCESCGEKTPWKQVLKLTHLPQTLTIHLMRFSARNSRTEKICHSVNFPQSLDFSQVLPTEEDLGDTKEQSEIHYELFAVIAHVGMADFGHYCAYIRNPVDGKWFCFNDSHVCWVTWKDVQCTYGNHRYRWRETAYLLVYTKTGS
Nature of the assay: High-throughput screening, ISG15ct-RhoMP, single dose 1.25 µM. The assay is classed as biochemical, murine.

The mark [1] stands for this setting: mUSP18 %inhibition, carboxylic acid (CA) building block alone, read-out: %inh CA only.
[2] abbreviates: mUSP18 %inhibition, carboxylic acid (CA) with coupling reagents DIC/HOBT, read-out: %inh CA + DIC/HOBT.
Where [3] appears, read: mUSP18 %inhibition, carboxylic acid (CA) building block alone.
Setting [4] is: mUSP18 %inhibition, carboxylic acid (CA) with coupling reagents DIC/HOBT.

As for `CSCCC(NC(C)=O)C(=O)O` (centres unmarked) [CA001], the inhibition at 1.25 µM runs as follows: under setting [1], 4.64%; under setting [2], -9.16%.
On the same counts, the results for `CC(=O)NCC(=O)O` [CA002] are 0.89% and -10.9%.
With `CC(C)CC(=O)O` [CA003], the inhibition at 1.25 µM is -0.18% under setting [1] and -12.3% under setting [2].
On the same counts, the results for `O=C(O)c1ccccc1I` [CA004] are -4.47% and -12.2%.
On the same counts, the results for `CC(C)C(=O)O` [CA005] are -4.83% and -18%.
As for `Cc1cc(OCC(=O)O)ccc1C(C)C` [CA006], the inhibition at 1.25 µM under setting [1] is -6.56% and the inhibition at 1.25 µM under setting [2] was -10.7%.
For `CCCC(=O)O` [CA007] the same measures were -4.83% and -14.7%.
On to `CC(C)(C)OC(=O)Nc1ccccc1C(=O)O` [CA009], for which the inhibition at 1.25 µM under setting [1] is -1.43% and the inhibition at 1.25 µM under setting [2] was -19.3%.
As to `Cc1cncc(C(=O)O)c1` [CA010], the inhibition at 1.25 µM reads like this: under setting [1], -2.59%; under setting [2], -11.3%.
`O=C(O)CCN1C(=O)C=CC1=O` [CA011]: the inhibition at 1.25 µM was 7.63% under setting [1] and -2.16% under setting [2].
For `O=C(O)Cc1ccc([N+](=O)[O-])cc1` [CA012] the same measures were -3.85% and -8.78%.
For `O=C(O)Cc1ccccc1[N+](=O)[O-]` [CA013] the same measures were 7.76% and -7.61%.
For `C#CCCC(=O)O` [CA014] the same measures were -1.43% and -9.92%.
As to `O=C(O)c1cnccn1` [CA015], the “%inh CA only” value under setting [3] is -1.35%. The “%inh CA + DIC/HOBT” value under setting [4] was -15.60%.
Take `O=C(O)c1ccc(/N=N/c2ccccc2)cc1` [CA016]: the inhibition at 1.25 µM was 3.44% under setting [1] and -5.83% under setting [2].
`O=C(O)Cc1ccncc1` [CA017]: the inhibition at 1.25 µM runs as follows: under setting [1], -7.18%; under setting [2], -13%.
On the same counts, the results for `Cn1c(=O)c2c(ncn2CC(=O)O)n(C)c1=O` [CA018] are -2.06% and -10.4%.
On the same counts, the results for `O=C(O)CNC(=O)c1ccccc1` [CA019] are -4.39% and -8.67%.
Turning to `O=C(O)c1ccc(B(O)O)cc1` [CA020], the inhibition at 1.25 µM runs as follows: under setting [1], -7.88%; under setting [2], -9.11%.
As to `CC(C)(C)OC(=O)NCC(=O)O` [CA021], the inhibition at 1.25 µM under setting [1] is -6.16% and the inhibition at 1.25 µM under setting [2] was -9.92%.
For `CC(C)(C)OC(=O)N[C@@H](Cc1cn(-c2ccc([N+](=O)[O-])cc2[N+](=O)[O-])cn1)C(=O)O` [CA022] the same measures were -4.55% and -8.26%.
For `O=C(O)CCCCBr` [CA023], the inhibition at 1.25 µM was -5.49% under setting [1] and -14.3% under setting [2].
As to `O=C(O)C(Br)c1ccccc1` (centres unmarked) [CA024], the inhibition at 1.25 µM runs as follows: under setting [1], -2.41%; under setting [2], -9.9%.
On the same counts, the results for `O=C(O)CCCCCBr` [CA025] are 7.25% and -8.17%.
For `O=C(O)c1ccccc1CCc1ccccc1` [CA026] the same measures were 2.38% and -14.8%.
For `O=C(O)c1ccc(CBr)cc1` [CA027] the same measures were 0.19% and -11.3%.
Consider `Cc1cc(C(=O)O)ccc1Br` [CA028], for which the inhibition at 1.25 µM is -3.46% under setting [1] and -11% under setting [2].
Consider `C#CCCCC(=O)O` [CA029], for which the inhibition at 1.25 µM is -11.6% (read-out: %inh CA + DIC/HOBT) and -3.41% (read-out: %inh CA only).
Regarding `O=C(O)c1nccc2ccccc12` [CA030], the inhibition at 1.25 µM by setting is: under setting [1], -2.62%; under setting [2], -9.45%.
In the case of `Cc1c(Br)cccc1C(=O)O` [CA031], the inhibition at 1.25 µM under setting [1] was -3.59% and the inhibition at 1.25 µM under setting [2] is -10.1%.
For `CC(=O)CCCCC(=O)O` [CA032] the same measures were -5.09% and -11.3%.
Take `Cc1ccc(Br)c(C(=O)O)c1` [CA033]: the “%inh CA only” value under setting [3] is recorded as -2.06%. Besides, under setting [4], the “%inh CA + DIC/HOBT” value is -9.49%.
As to `O=C(O)c1sccc1Br` [CA034], the inhibition at 1.25 µM was -2.15% under setting [1] and -14% under setting [2].
On the same counts, the results for `O=C(NNc1ccc(C(=O)O)cc1)OCC1c2ccccc2-c2ccccc21` [CA035] are 9.05% and 23.4%.
On to `O=Cc1cn(CC(=O)O)c2ccccc12` [CA036], for which the inhibition at 1.25 µM is -2.36% under setting [1] and -8.7% under setting [2].
`O=Cc1ccc(C(=O)O)cc1` [CA037]: the inhibition at 1.25 µM reads like this: under setting [1], 9.56%; under setting [2], -5.24%.
Turning to `O=C(O)c1cccc2c1-c1ccccc1C2` [CA038], the inhibition at 1.25 µM is 6.69% under setting [1] and -7.2% under setting [2].
Turning to `O=Cc1ccc(O)c(C(=O)O)c1` [CA040], the inhibition at 1.25 µM is 1.03% under setting [1] and -7.73% under setting [2].
Consider `CCCN(CCC)S(=O)(=O)c1ccc(C(=O)O)cc1` [CA041], for which the inhibition at 1.25 µM was -0.96% under setting [1] and -9.25% under setting [2].
In the case of `CN1C(=O)C[C@@H](C(=O)O)[C@@H]1c1cccnc1` [CA042], the “%inh CA only” value under setting [3] is 0.50%. For the same molecule, the “%inh CA + DIC/HOBT” value under setting [4] is on record as -12.12%.
`O=C(O)CCc1ccccc1Br` [CA043]: the inhibition at 1.25 µM is, setting by setting: under setting [1], -0.54%; under setting [2], -8.19%.
For `CC(=O)CCCC(=O)O` [CA044] the same measures were -3.03% and -7.52%.
On the same counts, the results for `O=Cc1ccccc1C(=O)O` [CA045] are -3.41% and -8.39%.
`O=Cc1cccc(C(=O)O)c1` [CA046]: the inhibition at 1.25 µM runs as follows: under setting [1], 0.78%; under setting [2], -7.39%.
On the same counts, the results for `O=C(O)CN1C(=O)c2ccccc2C1=O` [CA049] are 0.06% and -15.8%.
As for `COc1cc(CC(=O)O)ccc1O` [CA050], the inhibition at 1.25 µM reads like this: under setting [1], -1.29%; under setting [2], -15.5%.
Turning to `O=C(O)CCc1ccc(O)cc1` [CA051], the inhibition at 1.25 µM by setting is: under setting [1], -3.68%; under setting [2], -16.6%.
On the same counts, the results for `CNc1ccc(C(=O)O)cc1` [CA052] are -7.36% and -19.1%.
Regarding `Cc1ccc(Br)c(C(=O)O)c1` [CA053], the “%inh CA only” value under setting [3] is given as -8.05%. The “%inh CA + DIC/HOBT” value under setting [4] was -15.25%.
Turning to `O=C(O)c1cc([N+](=O)[O-])ccc1Br` [CA054], the inhibition at 1.25 µM under setting [1] was -7.96% and the inhibition at 1.25 µM under setting [2] was -15.9%.
For `O=C(O)c1c(F)c(F)c(O)c(F)c1F` [CA055] the same measures were -5.28% and -14.4%.
On the same counts, the results for `CC(=O)CCC(=O)O` [CA056] are -7.82% and -15.2%.
For `O=C(O)c1cccc(B(O)O)c1` [CA057], the inhibition at 1.25 µM is -5.9% under setting [1] and -16.2% under setting [2].
`O=C(O)CCc1cccnc1` [CA058]: the inhibition at 1.25 µM is -2.47% under setting [1] and -16.4% under setting [2].
On the same counts, the results for `O=C(O)c1ccc(F)c(F)c1` [CA059] are -4.22% and -18.1%.
